Laboratory results as given in patent publication US20120322124A1, “CONTROL OF CONTAMINANT MICROORGANISMS IN FERMENTATION PROCESSES WITH SYNERGISTIC FORMULATIONS CONTAINING STABILIZED CHLORINE DIOXIDE AND QUATERNARY AMMONIUM COMPOUND” (E. I. DU PONT DE NEMOURS AND COMPANY, priority 2010, published 2012).

Columns and labels:
Assay type in all cases: cell-based
lactic acid bacteria = assay: Molasses-based recycle stream treated with SCD, QAC or both: viable bacteria
Method: (§1) In this example, a molasses-based fermentation medium was prepared and inoculated with both yeast and lactic acid bacteria. The medium comprised various components as follows:
(§2) Following inoculation, the mixed culture was grown overnight in the molasses medium, after which a recycle stream was prepared by centrifuging the broth at 3000 rpm for 5 minutes. The resulting pellet was separated from the supernatant and reconstituted using sterile deionized water, then adjusted to pH 3.0 using sulfuric acid. 5 ml portions of the reconstituted pellet were then treated as follows: • 1. Untreated • 2. QAC only (60 ppm) • 3. SCD (45 ppm) • 4. SCD/QAC (45 ppm/60 ppm)
(§3) The SCD was FermaSure® fermentation additive, E. I. du Pont de Nemours and Co., Wilmington Del. The quaternary ammonium compound (QAC) was the same DDAC (BTC 1010, Stepan Company, Northfield, Ill.) as used in Example 1.
(§4) Samples were stored in a shaking incubator at 32° C. for 2 hours following which 0.1 ml aliquots were serially diluted and plated on selective media to enumerate surviving yeast and bacteria cells. […] Following this cycle, the SCD and SCD/QAC treated samples were centrifuged as before, and the number of viable yeast and bacterial cells in the resulting pellet was determined.

Lactobacillus brevis = assay: Checkerboard assay of SCD with a quaternary ammonium compound against Lactobacillus brevis; design: key: no inhibition of growth (NI); partial inhibition (PI); complete inhibition (CI); conditions: SCD 0 ppm, MRS broth pH 5.5, 28 hours at 32° C.
Source text: In this example, stabilized chlorine dioxide (SCD) and a quaternary ammonium chloride (QAC) mixture were used in a checkerboard assay to determine whether their interaction was synergistic against Lactobacillus brevis. The checkerboard assay method is used to analyze interactions between compounds by mixing them in increasing concentrations to determine whether the compounds act synergistically, additively or antagonistically. (See, M. Najjar, D. Kashtanov, M Chikindas, Letters in Applied Microbiology, vol. 45 (2007) 13-18.) L. brevis was cultured overnight in MRS broth (deMan Rogosa and Sharp broth, Difco Laboratories, Inc., Sparks, M.D.) at 32° C. The culture was then diluted and resuspended in fresh MRS broth adjusted to pH 5.5. The number of bacteria in the resuspended culture was determined using standard plate counts. Samples were diluted (1:10) in sterile phosphate-buffered saline (Sigma-Aldrich Co., St. Louis, Mo.) and plated onto the surface of MRS plates. The resuspended culture […] was then used to fill the wells of a 96 well plate (Becton, Dickinson and Co., Franklin Lakes, N.J.). SCD (FermaSure® fermentation additive, E. I. du Pont de Nemours and Co., Wilmington Del.) and a quaternary ammonium compound (BTC 1010, a solution of didecyl dimethyl ammonium chloride, DDAC, Stepan Company, Northfield, Ill.) were then added at the concentrations shown in the “checkerboard” plate diagram below. The plate was covered and incubated for 28 hours at 32° C. Following incubation, the plate was removed and the optical density of each well was determined using a plate reader at 630 nm (PowerWave, BioTek Instruments Inc., Winooski, Vt.). Based on the optical density, each well was scored to determine whether there was no inhibition of growth (NI), partial inhibition (PI), or complete inhibition (CI).
To determine whether any synergistic activity occurred between SCD and the quaternary ammonium compound, the fractional inhibitory concentration (FIC) was determined using the formula:
FIC=[SCD]/MICSCD+[DDAC]/MICDDAC
where [SCD] and [DDAC] are the concentrations of SCD and BTC 1010 that result in partial inhibition and MICSCD and MICDDAC are the minimum inhibitor concentration of SCD and DDAC, respectively. Synergy between the two antimicrobials is determined when the resulting FIC is <1.0.
In this example, SCD (FermaSure® fermentation additive, E. I. du Pont de Nemours and Co., Wilmington Del.) and a second quaternary ammonium compound (BTC 2125, a mixture of n-alkyl dimethyl benzyl ammonium chlorides and n-alkyl dimethyl ethylbenzyl ammonium chlorides, ADBAC/ADEBAC, Stepan Company, Northfield, Ill.) were used in a checkerboard assay to determine whether their interaction was synergistic against Lactobacillus brevis. L. brevis was cultured as above, resuspended in MRS at pH 5.5, and then added […] the wells of a 96 well plate (Becton Dickinson, Franklin Lakes, N.J.). […] Following incubation, the plate was removed and the optical density of each well was determined using a plate reader at 630 nm. Based on the optical density, each well was scored to determine whether there was no inhibition (NI), partial inhibition (PI), or complete inhibition (CI).
To determine whether any synergistic activity occurred between SCD and the ADBAC/ADEBAC quaternary ammonium compound, the fractional inhibitory concentration (FIC) was determined as above using the formula: […]

yeast = assay: Molasses-based recycle stream treated with SCD, QAC or both: viable yeast; conditions: QAC only (60 ppm), pH 3.0, 32° C.
Method: as §1, §2, §3, §4

Viable bacteria = assay: Bench-scale successive fermentations with yeast recycle stream from a molasses-based ethanol plant, viable bacteria enumerated
Method: In this example, samples of recycle streams comprising primarily inoculant yeast were collected from a molasses-based ethanol plant in Brazil. The samples were used to complete bench-scale fermentations in which the samples were treated with a combination of SCD (FermaSure® fermentation additive, E. I. du Pont de Nemours and Co., Wilmington Del.) with didecyl dimethyl ammonium chloride (BTC 1010, a solution of didecyl dimethyl ammonium chloride, DDAC, same as in Example 1), as quaternary compound. The treated samples were used to carry out successive 8-hour long fermentations, using recovered yeast at the end of each cycle to begin the next run. Viable bacteria were enumerated over 5 fermentation cycles. Results are provided in Table 3 where ND means the combination was not tested.

[1] = SCD 0 ppm, DDAC 60 ppm, yeast recycle stream, 8-hour fermentations

**Q.** What does the source list for `CCCCCCCCCC[N+](C)(C)CCCCCCCCCC.[Cl-]` [DDAC, didecyl dimethyl ammonium chloride]?
**A.** Viable Cells (2 hrs) Bacteria (lactic acid bacteria; QAC only (60 ppm), pH 3.0, 32° C., 2 hours): 8.1 logCFU per milliliter; number of viable bacteria, in words (lactic acid bacteria; treatments of Table 4 (QAC 60 ppm, SCD 45 ppm, SCD/QAC 45 ppm/60 ppm)): did not result in any reduction in viable bacterial cells; inhibition of growth score based on optical density at 630 nm (Lactobacillus brevis; DDAC 2 ppm): PI; inhibition of growth score based on optical density at 630 nm (Lactobacillus brevis; DDAC 4 ppm): PI; inhibition of growth score based on optical density at 630 nm (Lactobacillus brevis; DDAC 5 ppm): PI; inhibition of growth score based on optical density at 630 nm (Lactobacillus brevis; DDAC 6 ppm): PI; inhibition of growth score based on optical density at 630 nm (Lactobacillus brevis; DDAC 7 ppm): CI; Viable Cells (2 hrs) Yeast (yeast): 8.8 logCFU per milliliter; Log Viable Bacteria Cycle 1 (Viable bacteria; [1]): 7.79; Log Viable Bacteria Cycle 2 (Viable bacteria; [1]): 7.97; efficacy against viable bacteria, in words (Viable bacteria; treatments of Table 3 (45 ppm SCD and 60 ppm DDAC; 60 ppm DDAC alone), through 5 cycles of fermentation): did not result in any significant inactivation of bacteria
